Laboratory results taken from patent publication US7208505B2, “β3 adrenergic agonists” (Eli Lilly and Company, priority 2001, dated 2007).

Each compound was assayed against T1, human β3 adrenergic receptor (Homo sapiens, UniProt P13945) (assay: whole cell receptor coupled c-AMP assay (Emax relative to isoproterenol)). Conditions: % intrinsic activity: maximal response divided by isoproterenol maximal response times 100; transfected CHO cells; average of at least 3 runs.
T1 construct: expressed in transfected cells
T1 sequence (P13945 whole entry): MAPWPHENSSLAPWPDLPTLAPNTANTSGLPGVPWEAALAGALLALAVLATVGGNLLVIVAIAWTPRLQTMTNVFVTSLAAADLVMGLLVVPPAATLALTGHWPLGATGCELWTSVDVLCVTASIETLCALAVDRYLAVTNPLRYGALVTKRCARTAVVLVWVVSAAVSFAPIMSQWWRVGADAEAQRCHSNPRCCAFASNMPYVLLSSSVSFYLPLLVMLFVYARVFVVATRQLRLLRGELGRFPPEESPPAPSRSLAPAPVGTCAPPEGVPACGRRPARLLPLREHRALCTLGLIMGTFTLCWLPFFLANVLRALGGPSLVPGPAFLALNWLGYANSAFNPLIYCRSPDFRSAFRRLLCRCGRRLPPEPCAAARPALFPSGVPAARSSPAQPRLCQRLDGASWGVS
Assay type: cell-based
Source text: The genes encoding the human β1-adrenergic receptor (Frielle et al., Proc. Natl. Acad. Sci., 84:7920–7924, 1987), the human β2-adrenergic receptor (Kobika et al., Proc. Natl. Acad. Sci., 84:46–50, 1987, Emorine et al., Proc. Natl. Acad. Sci., 84:6995–6999, 1987) and the human β3 adrenergic receptor (Granneman et al., Molecular Pharmacology, 44(2):264–70, 1993) are individually subcloned into a phd expression vector (Grinnell et al., Bio/Technology, 5:1189–1192, 1987) and transfected into the DXB-11 Chinese hamster ovary (CHO) cell line by calcium phosphate precipitation methodology. The stably transfected cells are grown to 95% confluency in 95% Dulbecco's modified Eagles Medium (DMEM), 5% fetal bovine serum and 0.01% proline. Media is removed and the cells are washed with phosphate buffered (pH 7.4) saline (without magnesium and calcium). Cells are then lifted using an enzyme free cell dissociation solution (Specialty Media, Lavallette, N.J.) and pelleted by centrifugation.
Cells from each of the above cell lines are resuspended and added (20,000/well) to a 96-well plate. Cells are incubated at 37° C. with representative compounds of the invention for 20 minutes in buffer (Hank's balanced salt solution, 10 mM HEPES, 0.1% BSA, 1 mM L-ascorbic acid, 0.2% dimethyl sulfoxide, 1 mM 3-isobutyl-1-methylxanthine, pH 7.4). After halting the incubation with quench buffer (50 mM Na Acetate, 0.25% Triton X-100, pH 5.8), the c-AMP level is quantified by scintillation proximity assay (SPA) using a modification of the commercially available c-AMP kit (Amersham, Arlington Heights, Ill.) with rabbit anti-cAMP antibody (ICN Biomedicals, Aurora, Ohio) for the kit.
Sigmoidal dose response curves, from the whole cell receptor coupled c-AMP assay are fit to a four parameter logistic equation using non linear regression: y=(a−d)/(1+(Dose/c)^b)+d where a and d are responses at zero and maximal dose, b is the slope factor and c is the EC50 as previously described (DeLean et al., Am. J. Physiol., 235, E97-E102, 1978). EC50 is assessed as the concentration producing 50% of the maximum response to each agonist.
Isoproterenol is accepted in the art as a non-selective β3 agonist and is widely used as a comparator in evaluating the activity of compounds. See Trends in Pharm. Sci., 15:3, 1994. The % intrinsic activity (Emax) of representative compounds of the invention is assessed relative to isoproterenol by the compound's maximal response divided by the isoproterenol maximal response times 100.
In the case of COC(=O)c1ccc2[nH]cc(CC(C)(C)NC[C@H](O)COc3ccccc3-c3cccs3)c2c1 [Example 70], the “Emax (%) ± SEM” value is reported as 37.3 ± 2.7%.
With CC(C)(Cc1c[nH]c2ccccc12)NC[C@H](O)COc1ccccc1-c1ccc(S(N)(=O)=O)s1 [Example 191] the “Emax (%) ± SEM” value was 85.6 ± 7.8%.
For COC(=O)c1ccc(Oc2cccc3c(CC(C)(C)NC[C@H](O)COc4ccccc4-c4cccs4)c[nH]c23)nc1 [Example 117], the “Emax (%) ± SEM” value was 67.6 ± 3.9%.
For CC(C)(CNC(=O)c1c[nH]c2ccccc12)NC[C@H](O)COc1ccccc1-c1cccs1 [Example 73], the “Emax (%) ± SEM” value was 32.1 ± 3.3%.
In the case of CC(C)(Cc1c[nH]c2c(OCC#N)cccc12)NC[C@H](O)COc1ccccc1-c1ccon1 [Example 132], the “Emax (%) ± SEM” value is reported as 53.6 ± 1.4%.
With CC(C)(Cc1c[nH]c2c(OCC(N)=O)cccc12)NC[C@H](O)COc1ccccc1-n1cccc1 [Example 3] the “Emax (%) ± SEM” value was 68.9 ± 2.6%.
With CC(=O)c1ccc(-c2cccc3c(CC(C)(C)NC[C@H](O)COc4ccccc4-c4cccs4)c[nH]c23)cc1 [Example 48] the “Emax (%) ± SEM” value was 60.4 ± 6.0%.
CC(C)(Cc1c[nH]c2ccccc12)NC[C@H](O)COc1ccccc1-c1ccsc1.Cl [Example 51] was tested, and the “Emax (%) ± SEM” value was 58.3 ± 1.3%.
For COC(=O)c1ccc(-c2cccc3c(CC(C)(C)NC[C@H](O)COc4ccccc4-c4cccs4)c[nH]c23)cc1 [Example 178], the “Emax (%) ± SEM” value was 72.5 ± 2.2%.
CC(C)(Cc1c[nH]c2c(OCC#N)cccc12)NC[C@H](O)COc1ccccc1-c1nncs1 [Example 160] was tested, and the “Emax (%) ± SEM” value was 44.3 ± 3.9%.
For C[C@H](Cn1ccc2ccccc21)NC[C@H](O)COc1ccccc1-c1ccon1 [Example 165], the “Emax (%) ± SEM” value was 37.1 ± 4.0%.
For CC(C)(Cc1c[nH]c2cc(C(=O)O)ccc12)NC[C@H](O)COc1ccccc1-c1ccc(C#N)s1 [Example 96], the “Emax (%) ± SEM” value was 74.1 ± 2.4%.
In the case of CC(C)(Cc1c[nH]c2cc(F)ccc12)NC[C@H](O)COc1ccccc1-c1nccs1 [Example 159], the “Emax (%) ± SEM” value is reported as 53.0 ± 1.8%.
C[C@H](Cn1ccc2cc(OCC#N)ccc21)NC[C@H](O)COc1ccccc1-c1cccs1 [Example 155] was tested, and the “Emax (%) ± SEM” value was 58.7 ± 13.4%.
In the case of CC(C)(Cc1c[nH]c2ccccc12)NC[C@H](O)COc1ccccc1-c1nncs1 [Example 82], the “Emax (%) ± SEM” value is reported as 45.5 ± 3.5%.
For CC(C)(Cc1c[nH]c2cc(C#N)ccc12)NC[C@H](O)COc1ccccc1-c1cccs1 [Example 77], the “Emax (%) ± SEM” value was 73.9 ± 1.3%.
With CC(C)(NC[C@H](O)COc1ccccc1-c1cccs1)C(=O)N1CCc2ccccc21 [Example 192] the “Emax (%) ± SEM” value was 55.6 ± 6.0%.
For CC(C)(Cc1c[nH]c2c(C=CC#N)cccc12)NCC(O)COc1ccccc1-c1cccs1 (stereo not shown) [Example 143], the “Emax (%) ± SEM” value was 66.4 ± 8.7%.
In the case of CCOC(=O)c1cccc(-c2cccc3c(CC(C)(C)NC[C@H](O)COc4ccccc4-n4cccc4)c[nH]c23)c1 [Example 42], the “Emax (%) ± SEM” value is reported as 61.0 ± 4.5%.
For CC(C)(Cc1c[nH]c2cccc(F)c12)NC[C@H](O)COc1ccccc1-c1ccon1 [Example 166], the “Emax (%) ± SEM” value was 47.8 ± 0.6%.
CC(C)(Cc1c[nH]c2c(C=Cn3cncn3)cccc12)NCC(O)COc1ccccc1-c1cccs1 (stereo not shown) [Example 146] was tested, and the “Emax (%) ± SEM” value was 47.3 ± 2.3%.
For Cc1cc2c(OCC#N)cccc2n1C[C@@H](C)NC[C@H](O)COc1ccccc1-c1cccs1 [Example 156], the “Emax (%) ± SEM” value was 41.9 ± 9.3%.
With CC(C)(Cc1c[nH]c2c(C(=O)O)cccc12)NC[C@H](O)COc1ccccc1-c1ccc(S(N)(=O)=O)s1 [Example 54] the “Emax (%) ± SEM” value was 79.0 ± 3.5%.
With CC(C)(Cc1c[nH]c2c(C=Cc3ccc(S(N)(=O)=O)cc3)cccc12)NC[C@H](O)COc1ccccc1-c1cccs1 [Example 189] the “Emax (%) ± SEM” value was 64.5 ± 1.7%.
CC(C)(Cc1c[nH]c2ccccc12)NC[C@H](O)COc1ccccc1-c1cocn1 [Example 31] was tested, and the “Emax (%) ± SEM” value was 62.4 ± 2.1%.
With CC(C)(Cc1c[nH]c2c(Oc3ncccc3C#N)cccc12)NC[C@H](O)COc1ccccc1-c1cccs1 [Example 112] the “Emax (%) ± SEM” value was 97.7 ± 5.9%.
For CC(=O)Nc1ccc(-c2cccc3c(CC(C)(C)NC[C@H](O)COc4ccccc4-c4cccs4)c[nH]c23)cc1 [Example 179], the “Emax (%) ± SEM” value was 71.5 ± 1.1%.
In the case of Cc1cc(-c2ccccc2OC[C@@H](O)CNC(C)(C)Cc2c[nH]c3ccccc23)on1 [Example 36], the “Emax (%) ± SEM” value is reported as 63.9 ± 1.6%.
For C[C@H](CN1CCc2ccccc21)NC[C@H](O)COc1ccccc1-c1ccon1 [Example 129], the “Emax (%) ± SEM” value was 35.2 ± 3.3%.
CC(C)(Cc1c[nH]c2ccccc12)NC[C@H](O)COc1ccccc1-c1ccns1 [Example 83] was tested, and the “Emax (%) ± SEM” value was 73.7 ± 2.0%.
In the case of CC(C)(Cc1c[nH]c2ccc(F)cc12)NC[C@H](O)COc1ccccc1-c1ccon1 [Example 167], the “Emax (%) ± SEM” value is reported as 40.8 ± 1.3%.
With Cc1csc(-c2ccccc2OC[C@@H](O)CNC(C)(C)Cc2c[nH]c3ccccc23)c1.O=C(O)C(F)(F)F [Example 21] the “Emax (%) ± SEM” value was 61.3 ± 3.2%.
For CCOC(=O)c1cccc(-c2cccc3c(CC(C)(C)NC[C@H](O)COc4ccccc4-c4cccs4)c[nH]c23)c1 [Example 40], the “Emax (%) ± SEM” value was 73.3 ± 4.6%.
COC(=O)c1ccc(-c2cccc3c(CC(C)(C)NC[C@H](O)COc4ccccc4-c4cccs4)c[nH]c23)cc1 [Example 43] was tested, and the “Emax (%) ± SEM” value was 66.6 ± 3.1%.
CCOC(=O)c1cccc(-c2cccc3c(CC(C)(C)NC[C@H](O)COc4ccccc4-c4ccon4)c[nH]c23)c1 [Example 41] was tested, and the “Emax (%) ± SEM” value was 73.1 ± 1.0%.
For O[C@@H](CNCCn1ccc2ccccc21)COc1ccccc1-c1cccs1 [Example 64], the “Emax (%) ± SEM” value was 22.2 ± 4.5%.
In the case of COC(=O)c1ccc(-c2cccc3c(CC(C)(C)NC[C@H](O)COc4ccccc4-n4cccc4)c[nH]c23)cc1 [Example 45], the “Emax (%) ± SEM” value is reported as 41.9 ± 4.5%.
With CC(C)(Cc1c[nH]c2ccccc12)NC[C@H](O)COc1ccccc1-c1cnco1 [Example 34] the “Emax (%) ± SEM” value was 64.5 ± 2.1%.
CC(C)(Cc1c[nH]c2c(-c3ccc(C(F)(F)F)cc3C(F)(F)F)cccc12)NC[C@H](O)COc1ccccc1-c1ccon1 [Example 111] was tested, and the “Emax (%) ± SEM” value was 86.0 ± 4.0%.
In the case of CC(C)(Cc1c[nH]c2c(Oc3ncccc3C#N)cccc12)NC[C@H](O)COc1ccccc1-c1ccon1 [Example 113], the “Emax (%) ± SEM” value is reported as 76.5 ± 3.0%.
For CC(C)(Cc1c[nH]c2c(OCC(=O)[O-])cccc12)NC[C@H](O)COc1ccccc1-c1cccs1.[Na+] [Example 225], the “Emax (%) ± SEM” value was 78.1 ± 4.6%.
In the case of CC(C)(Cc1c[nH]c2c(C(N)=O)cccc12)NC[C@H](O)COc1ccccc1-c1ccon1 [Example 175], the “Emax (%) ± SEM” value is reported as 41.1 ± 3.5%.
With CC(C)(Cc1c[nH]c2ccc(C#N)cc12)NC[C@H](O)COc1ccccc1-c1cccs1 [Example 74] the “Emax (%) ± SEM” value was 28.3 ± 2.6%.

Same assay, conditions: CHO, % intrinsic activity: maximal response divided by isoproterenol maximal response times 100; transfected CHO cells; average of at least 3 runs
In the case of CC(C)(Cc1c[nH]c2c(Oc3ccc(C(=O)O)cn3)cccc12)NC[C@H](O)COc1ccccc1-c1ccon1 [Example 244], the Emax is reported as 77 ± 2.1%.
CC(C)(Cc1c[nH]c2c(CCc3nnn[nH]3)cccc12)NC[C@H](O)COc1ccccc1-c1cccs1 [Example 232] showed an Emax of 79.5 ± 1.7%.
CC(C)(Cc1c[nH]c2c(Oc3ccc(C(N)=O)cn3)cccc12)NC[C@H](O)COc1ccccc1-c1ccon1 [Example 245] showed an Emax of 63.3 ± 3%.
Compound CC(C)(Cc1c[nH]c2c(-c3ccc(C(=O)O)cc3)cccc12)NC[C@H](O)COc1ccccc1-c1cccs1 [Example 246] has an Emax of 79.2 ± 3.4%.
CC(C)(Cc1c[nH]c2c(-c3cccc(C(=O)O)c3)cccc12)NC[C@H](O)COc1ccccc1-c1ccon1 [Example 249] was tested, and the Emax was 68.8 ± 7.8%.
Work on CC(C)(Cc1c[nH]c2c(OCC(=O)O)cccc12)NC[C@H](O)COc1ccccc1-c1nccs1 [Example 234] yielded an Emax of 66.4 ± 6.4%.
With CC(C)(Cc1c[nH]c2c(OCC#N)cccc12)NC[C@H](O)COc1ccccc1-n1cccc1 [Example 256] the Emax was 71.4 ± 2.7%.
With C[C@H](Cn1ccc2c(C(=O)O)cccc21)NC[C@H](O)COc1ccccc1-c1cccs1 [Example 242] the Emax was 59.6 ± 2.8%.
In the case of CC(C)(Cc1c[nH]c2c(OCC3=NCCS3)cccc12)NC[C@H](O)COc1ccccc1-c1cccs1 [Example 231], the Emax is reported as 85 ± 4.9%.
CC(C)(Cc1c[nH]c2c(CCc3ccc(-c4nnn[nH]4)cc3)cccc12)NC[C@H](O)COc1ccccc1-c1cccs1 [Example 251] gave an Emax of 86.3 ± 3.4%.
CC(C)(Cc1c[nH]c2c(OCC(=O)O)cccc12)NC[C@H](O)COc1ccccc1-c1ccon1 [Example 223] showed an Emax of 56.1 ± 2.8%.
Compound CC(C)(Cc1c[nH]c2cc(C(=O)O)ccc12)NC[C@H](O)COc1ccccc1-c1cccs1 [Example 240] has an Emax of 78.7 ± 2.4%.
